Reference: patent US20090269365A1, “IMMUNOGENIC VACCINIA PEPTIDES AND METHODS OF USING SAME” (priority 2005, published 2009)

Assays:
Format in all cases: cell-based, human
[1] = test system: bulk vaccinia-specific CD8 CTL
[2] = test system: vaccinia-specific CD8 CTL clones; conditions: read-out: EC50 in CTL assays
CD4+ T-cells = conditions: humans, Example 2
[3] = test system: bulk vaccinia-specific CD8 CTL; remark: listed apart in the source

For EEQELLLLY [F3 41-49], the “IFN-γ secretion by bulk CTL, in words” value [1] was “again detectable” and the EC50 [2] was ~10 nM.

KIQNVIIDECY [L1R 127-137] was tested, and the “CD4+ T-cell reactivity, in words” value (CD4+ T-cells) was “reacts with CD4+ T-cells”.

In the case of NPITKTTSDYQDSDVSQEVR [A33R 157-176], the “CD4+ T-cell reactivity, in words” value (CD4+ T-cells) is reported as “containing the epitope”.

With TKTTSDYQDSDVSQ [A33R 160-173] the “CD4+ T-cell reactivity, in words” value (CD4+ T-cells) was “epitope region has been further narrowed down”.

For VWINNSWKF [D5R 349-357], the “IFN-γ ICC response relative to DMSO background, in words” value [3] was “detection of IFN-γ-bright cells at a level above the background”.

WLKIKRDYL [A50R 395-403] was tested, and the “net ICC response (peptide minus DMSO)” value [3] was ~1.55% and the “percentage of bulk CTL positive for IFN-γ by ICC” value [3] was 2.95%.

With YEFRKVKSY [A3L 264-272] the “IFN-γ secretion by bulk CTL, in words” value [1] was “positive” and the “IFN-γ ICC response relative to DMSO background, in words” value [3] was “positive”.
